Here are results for one compound from patent US20210353595A1, “USE OF MELATONIN IN PREPARATION OF MEDICAMENT FOR INHIBITING AND/OR KILLING BACTERIUM” (priority 2020, published 2021).

For one assay, the system named is Pasteurella multocida. Briefly: Treatment of Pasteurella multocida infection by melatonin in mice. The class given is in vivo, C57BL/6 mice. Conditions: intraperitoneal at 30 minutes, 6, 12 and 18 hours after infection. The procedure:
Mice were randomly divided into four groups (10 mice in each group) as described in #1, described above. In the experimental group, after infection with 2.2×10^5 CFU of Pasteurella multocida through intraperitoneal injection, MT was injected intraperitoneally for four times, with the first injection 30 minutes after Pasteurella multocida infection, then the injection was performed once every 6 hours, for three times in total. Control mice were given an equal amount of DMSO at the same four time points. Subsequently, the survival rate of mice within 7 days was recorded. At the same time, mice were euthanized at 12 h, 16 h, 24 h and 32 h after infection to collect tissue and serum samples for later ELISA and bacterial count analysis.
In order to measure the colonization of mouse lung bacteria before and after melatonin treatment, the lung tissues of mice were collected 24 hours and 32 hours after infection. The tissues were homogenized under aseptic conditions, and the bacterial content was determined by continuous dilution of 10 times in saline. These different dilutions were coated on the Martin broth agar in triplicate and incubated in a constant-temperature incubator at 37° C. for 24 hours to count the bacterial CFU.

Assay [1] relates to Avianpathogenic Escherichia coli. Description: MIC/MBC bacteriostatic and bactericidal test. Conditions: 12 h. The class given is cell-based. The procedure: (§1) 1 mL of a fresh suspension of bacteria (1×10^9 CFU) at the logarithmic growth stage was added into 100 mL containing different concentrations (50 mg/mL, 25 mg/mL, 12.5 mg/mL, 6.25 mg/mL, 3.125 mg/mL, 1.5625 mg/mL, 0.78125 mg/mL, 0.390625 mg/mL) of melatonin. A melatonin (MT)-free solution diluted with DMSO was used as a control group. The samples were shaken at 37° C. and a rotation speed of 120 r/min with protection from light for 12 hours, and then subjected to detection of the minimal inhibitory concentration (MIC) of MT on bacteria. Then, 0.1 mL of the aforementioned transparent bacterial solution was pipetted onto a sterilized agar plate of a specific culture medium and coated evenly, incubated in an incubator at 37° C. for 24 hours, and then subjected to detection of the minimum bactericidal concentration (MBC) of MT on pathogens, wherein the minimum concentration of MT at which no bacterium grew was the MBC of MT on pathogens. Each experiment was carried out for 3 times, and each group was set in triplicate.

For another assay, the system named is Mannheimia haemolytica. Briefly: MIC/MBC bacteriostatic and bactericidal test. Format: cell-based. The procedure: as §1
Assay [2] has as its system Pseudomonas aeruginosa. Briefly: MIC/MBC bacteriostatic and bactericidal test. The class given is cell-based. The procedure:
as §1

For another assay, the system named is inflammatory cytokines. Briefly: RT-PCR and ELISA of inflammatory cytokines after Pasteurella multocida infection. Format: in vivo, C57BL/6 mice. Conditions: 24 hours after infection, lung tissues and serum. The procedure:
The mouse lung tissue samples were collected, and the total RNA of mouse lung tissues was extracted according to the instructions of the total RNA extraction kit (Invitrogen). According to the instructions of a TaKaRa reverse transcription kit, cDNA was prepared and reverse transcribed with the general process as follows:
The process of qRT-PCR was carried out with reference to previous studies, and (3-actin was used as a reference gene to normalize the transcription level of the target gene. The specific primer sequences used are shown in Table 2. The relative expression level of the gene was calculated according to the equation 2^−(ΔΔCt), wherein ΔΔCt=(CT of the target gene−Ct of the internal reference) of the experimental group−(Ct of the target gene−Ct of the internal reference) of the control group.
ELISA samples were divided into serum samples and lung tissue homogenate samples. Among them, the process of collecting serum was collecting mouse whole blood from the eyeball, storing overnight at 4° C., centrifuging at 5000 rpm for 10 min, collecting the supernatant and storing it at −20° C. for later use. While the preparation process of the mouse lung homogenate was collecting lung tissues, adding 2 mL sterile normal saline to prepare a homogenate, then repeatedly freezing and thawing the homogenate in liquid nitrogen (5 min) and ice-water bath for 3 times, then centrifuging at 4° C. and 12000 rpm for 10 min, and collecting the supernatant for later use. According to the instructions of the kit, the serum and the supernatant of lung tissue homogenate as prepared were detected for IL-10, IL-4, IL-6, IL-10, TNF-α and IFN-γ (eBioscience).

The subject of assay [3] is citrate synthase in Streptococcus. Briefly: Citrate synthase activity of bacteria after treatment. Format: cell-based, Streptococcus pneumoniae. Conditions: MT 1-3 mg/mL, 12 h, also with exogenous citric acid, FIG. 28. The procedure: (§2) Further, 1 mL of Klebsiella pneumoniae, Pseudomonas aeruginosa, Diplococcus pneumoniae and Streptococcus pneumoniae at the logarithmic growth stage was added into 100 mL of fresh and sterile Martin broth liquid medium containing different concentrations of melatonin and citric acid (MT-1 mg/mL, MT-2 mg/mL, MT-3 mg/mL, CA-1 mg/mL, CA-2 mg/mL, CA-3 mg/mL, MT-1 mg/mL-CA-1 mg/mL, MT-2 mg/mL-CA-2 mg/mL, MT-3 mg/mL-CA-3 mg/mL) added was. Melatonin-free DMSO was used as the solvent control group, and the bacterial cells were cultured in a constant-temperature shaker at 37° C. and 220 rpm for 12 h. Thereafter, 1 mL of the bacterial solution was pipetted and centrifuged at 3000 r/min for 10 minutes. The bacterial cells were then collected and determined for citrate synthase activity according to the protocol of the instructions for the kit. Each experiment was repeated three times, and each group was set in triplicate.

Assay [4] deals with citrate synthase in Pneumococcus. The description is as above. Conditions: MT 1-3 mg/mL, 12 h, also with exogenous citric acid, FIG. 28. The class given is cell-based, Diplococcus pneumoniae. The procedure:
as §2

A further assay has as its system Streptococcus. Briefly: Growth curve with melatonin and citric acid. Format: cell-based, Streptococcus pneumoniae. Conditions: MT 1-3 mg/mL, FIG. 27. The procedure:
(§3) In additional studies, 1 mL of Klebsiella pneumoniae, Pseudomonas aeruginosa, Diplococcus pneumoniae and Streptococcus pneumoniae at the logarithmic growth stage was added into 100 mL of fresh and sterile Martin broth medium containing different concentrations of melatonin and citric acid (CA) (MT-1 mg/mL, MT-1 mg/mL-CA-1 mg/mL, MT-1 mg/mL-CA-2 mg/mL, MT-1 mg/mL-CA-3 mg/mL; MT-2 mg/mL, MT-2 mg/mL-CA-1 mg/mL, MT-2 mg/mL-CA-2 mg/mL, MT-2 mg/mL-CA-3 mg/mL; MT-3 mg/mL, MT-3 mg/mL-CA-1 mg/mL, MT-3 mg/mL-CA-2 mg/mL MT-3 mg/mL-CA-3 mg/mL).

The next assay deals with Klebsiella pneumoniae. Briefly: Growth curve with melatonin and citric acid. Format: cell-based. Conditions: MT 1-3 mg/mL, FIG. 27. The procedure:
as §3

Assay [5] deals with Pseudomonas aeruginosa. Briefly: Growth curve with melatonin and citric acid. Format: cell-based. Conditions: MT 1-3 mg/mL, FIG. 27. The procedure: as §3

In brackets after ≈: the same amount, converted by molar mass.

One may read the MIC as the smallest concentration in the dilution series that meets the test's criterion for growth inhibition. As for `COc1ccc2[nH]cc(CCNC(C)=O)c2c1` [melatonin, N-acetyl-5-methoxytryptamine], in the assay on Pasteurella multocida (FIG. 35), the survival rate entry is on record as “improving the survival rate”. Besides, the “bacterial colonization in mouse lungs” value in the assay with Pasteurella multocida (FIG. 36) was “reducing bacterial colonization”. For the same compound, the MIC in [1] was determined as 6.25 mg/mL (≈ 26.9 mM); in the assay on Mannheimia haemolytica (37° C., 12 hours) it was 12.5 mg/mL (≈ 53.8 mM); against Pseudomonas aeruginosa [2] (37° C., 12 hours), 12.5 mg/mL (≈ 53.8 mM). Moreover, the MBC is 25 mg/mL (≈ 108 mM) against Mannheimia haemolytica (agar plate 37° C., 24 hours) and 12.5 mg/mL (≈ 53.8 mM) in the assay on Pseudomonas aeruginosa [2] (agar plate 37° C., 24 hours). For the same compound, the “expression of IFN-γ” value in the assay on inflammatory cytokines is recorded as “significantly reduced”. Besides, the “expression of IL-6” value in the assay on inflammatory cytokines is recorded as “significantly reduced”. Moreover, the “expression of TNF-α” value with inflammatory cytokines was “significantly reduced”. Also, the “transcription and expression of IL-4” value in the assay with inflammatory cytokines is recorded as “promoted”. Moreover, in the assay on inflammatory cytokines, the “transcription and expression of IL-10” value is reported as “promoted”. The “enzyme activity of citrate synthase” value in [3] and in assay [4] was “not influenced” throughout. Further, the antibacterial activity entry with Streptococcus, in the assay on Klebsiella pneumoniae and with Pseudomonas aeruginosa [5] was “exhibits antibacterial activity” throughout.
